According to patent US11098041B2 (Merck Patent GmbH, priority 2014, dated 2021):

What was measured:
full-length human BTK = full-length human BTK (Homo sapiens (Human), UniProt Q06187); experiment: Assay A: microfluidic off-chip mobility shift assay against BTK enzyme; type: biochemical
Experimental: Assay A: Microfluidic Off-Chip Mobility Shift Assay Protocol for Potency Assessment Against BTK Enzyme
The protocol below describes microfluidic, off-chip mobility shift kinase assay to measure inherent potency of compounds against BTK enzyme.
5 uL of enzyme buffer and 7.5 uL of ATP/kinKDR peptide substrate mix were added to Matrix (#115304) 384-well, sterile, polypropylene plates (Thermo Fisher Scientific, Hudson, N.H.) with 125 nL of serially diluted compounds prepared in 100% DMSO, and incubated for 90 min. at 27° C. Following the incubation period, reactions were stopped by adding 60 uL stop buffer consisting of 100 mM HEPES, pH 7.5, 0.015% Brij-35 (30%), 0.277% Coating Reagent #3 (Caliper Life Sciences, Mountain View, Calif.), 5% DMSO. Stopped reactions were monitored at −2 PSI, −3000 V/−700 V in a LabChip 3000 plate reader from Caliper Life Sciences, a PerkinElmer Company (Hopkinton, Mass.), and the activity was measured by off-chip mobility shift assay measuring the charge/mass difference between substrate and product resulting from peptide phosphorilation. IC50 and efficacy were determined by plotting log [Inhibitor] vs. % Activity in GeneData Screener (Basel. Switzerland).

[1] = tested on: anti-IgM-induced expression of CD69 on CD19 positive cells (B cells) in human PBMCs; experiment: Assay C: PBMC IC50 assay (anti-IgM-induced CD69 expression); type: cell-based; conditions: anti-IgM stimulation
Experimental: Btk is critical for mediating the signalling of B cell antigen receptor (BCR) after anti-IgM stimulation. Based on this principle, a functional cell-based assay was established to determine the potency of compounds at inhibiting anti-IgM-induced expression of CD69, a downstream BCR signaling event, in freshly isolated human peripheral blood mononuclear cells (PBMCs). In the assay, a 90 μl PBMC suspension containing 2.5×10^5 cells was pre-treated with 10 μl of test compound at various concentrations for an hour, and then incubated overnight (approximately 16-18 hours) with 5 μl 420 μg/ml affiniPure F(ab′)2 fragment goat anti-human IgM Fc fragment per well (Dianova, Cat. No.: 109-006-129). After the incubation, the cells were washed and immunostained with an APC-labeled mouse anti-human CD69 (BD Biosciences; clone: FN50), a PerCP-Cy5.5 labelled mouse anti-human CD19 (BD Biosciences; clone: SJ25C1) and a FITC-labelled mouse anti-human CD3 (BD Biosciences; clone: HIT3a), and fixed for flow cytometric analysis of CD69 expression on CD19 positive cells (B cells). The percentage of CD69 expressing CD19 positive cells was plotted against the concentrations of test compounds to obtain a concentration response curve, and calculate an IC50 value as a measure of the potency of test compounds in the assay.

[2] = molecular target: BTK C481S (His-TEV-hsBTK(328-659)(C481S)) (Homo sapiens (Human), UniProt Q06187, C481S); experiment: Assay B: microfluidic off-chip mobility shift assay against BTK C481S enzyme; type: biochemical; conditions: BTK C481S mutant
Sequence of BTK C481S (His-TEV-hsBTK(328-659)(C481S)) (Q06187 328-659 C481S): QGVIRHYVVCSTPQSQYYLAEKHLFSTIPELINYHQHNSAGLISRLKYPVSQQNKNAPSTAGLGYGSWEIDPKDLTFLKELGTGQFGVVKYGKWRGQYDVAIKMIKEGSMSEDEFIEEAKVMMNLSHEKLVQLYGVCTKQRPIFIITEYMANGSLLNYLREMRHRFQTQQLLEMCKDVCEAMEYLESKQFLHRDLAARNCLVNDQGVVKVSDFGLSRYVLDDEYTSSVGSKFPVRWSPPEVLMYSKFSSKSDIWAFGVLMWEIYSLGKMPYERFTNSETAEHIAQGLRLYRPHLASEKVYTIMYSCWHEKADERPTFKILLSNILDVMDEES
Experimental: The mechanics of the assay platform are described by the vendor (PerkinElmer, Hopkinton, Mass.) on their website at the following URL: http://caliperls.com.
5 uL of enzyme buffer and 7.5 uL of ATP/KinKDR peptide substrate mix were added to Matrix (#4315) 384-well, sterile, flat-bottom polypropylene plates (Thermo Fisher Scientific, Hudson, N.H.) with 125 nL of serially diluted compounds prepared in 100% DMSO, and incubated for 90 min. at 25° C. Following the incubation period, reactions were terminated by adding 65 uL quench buffer consisting of 100 mM HEPES, pH 7.5, 0.015% Brij-35 (30%), 0.277% Coating Reagent #3 (PerkinElmer, Mountain View, Calif.), 5% DMSO. Terminated reactions were monitored at −2 PSI, −3000 V/−700 Volts in a LabChip 3000 plate reader from Caliper Life Sciences, a PerkinElmer Company (Hopkinton, Mass.), and the activity was quantified by laser-induced fluorescence measuring the charge/mass difference between substrate and product resulting from peptide phosphorylation. IC50 and efficacy were determined by plotting log [Inhibitor] vs. % Activity in GeneData Screener (Basel, Switzerland).

Sequence of full-length human BTK (Q06187 whole entry): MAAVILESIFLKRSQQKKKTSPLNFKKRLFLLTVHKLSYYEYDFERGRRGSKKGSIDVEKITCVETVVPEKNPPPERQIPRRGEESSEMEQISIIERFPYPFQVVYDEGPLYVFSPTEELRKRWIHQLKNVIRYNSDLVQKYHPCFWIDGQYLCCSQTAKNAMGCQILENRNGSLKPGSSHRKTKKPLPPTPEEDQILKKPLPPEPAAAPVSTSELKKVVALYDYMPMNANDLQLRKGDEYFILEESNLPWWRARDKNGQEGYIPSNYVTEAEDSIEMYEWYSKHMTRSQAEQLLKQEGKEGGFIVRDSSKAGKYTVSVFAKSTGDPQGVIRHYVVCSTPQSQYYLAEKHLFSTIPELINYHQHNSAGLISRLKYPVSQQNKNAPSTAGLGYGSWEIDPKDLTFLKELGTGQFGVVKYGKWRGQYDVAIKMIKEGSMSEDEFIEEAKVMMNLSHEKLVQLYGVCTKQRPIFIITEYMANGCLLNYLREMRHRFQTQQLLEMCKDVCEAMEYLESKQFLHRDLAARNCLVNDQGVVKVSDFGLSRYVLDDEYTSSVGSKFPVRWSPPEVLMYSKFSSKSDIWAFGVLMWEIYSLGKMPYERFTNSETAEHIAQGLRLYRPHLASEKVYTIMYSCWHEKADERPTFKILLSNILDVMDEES

SMILES | IC50 (full-length human BTK) | IC50 [1] | IC50 [2]
CCn1cc(-c2nc3c(-c4ccc(CNC(=O)c5noc(C(C)(C)C)n5)c(F)c4)ccnc3[nH]2)cn1 [Example 131, 5-tert-Butyl-[1,2,4]oxadiazole-3-carboxylic acid 4-[2-(1-ethyl-1H-pyrazol-4-yl)-3H-imidazo[4,5-b]pyridin-7-yl]-2-fluoro-benzylamide] | < 100 nM | < 100 nM | –
Cn1cc(-c2nc3c(-c4ccc(CNC(=O)c5cc6c(s5)CCCC6)c(F)c4)ccnc3[nH]2)cn1 [Example 132, N-(2-fluoro-4-(2-(1-methyl-1H-pyrazol-4-yl)-3H-imidazo[4,5-b]pyridin-7-yl)benzyl)-4,5,6,7-tetrahydrobenzo[b]thiophene-2-carboxamide] | – | 100 to 1000 nM | –
CC(C)(C)c1noc(C(=O)NCc2ccc(-c3ccnc4[nH]c(-c5ccc(CN6CCOCC6)cn5)nc34)cc2F)n1 [Example 162, 3-tert-butyl-N-[(2-fluoro-4-[2-[5-(morpholin-4-ylmethyl)pyridin-2-yl]-3H-imidazo[4,5-b]pyridin-7-yl]phenyl)methyl]-1,2,4-oxadiazole-5-carboxamide] | < 100 nM | < 100 nM | –
Cn1cc(-c2nc3c(-c4ccc(C5(NC(=O)c6noc(C(C)(C)C)n6)CC5)c(F)c4)ccnc3[nH]2)cn1 [Example 51, 5-tert-Butyl-N-(1-[2-fluoro-4-[2-(1-methyl-1H-pyrazol-4-yl)-3H-imidazo[4,5-b]pyridin-7-yl]phenyl]cyclopropyl)-1,2,4-oxadiazole-3-carboxamide] | < 100 nM | < 100 nM | –
COc1cccc(-c2nc3c(-c4ccc(CNC(=O)c5noc(C(C)(C)C)n5)c(F)c4)ccnc3[nH]2)c1 [Example 73, 5-tert-Butyl-N-([2-fluoro-4-[2-(3-methoxyphenyl)-3H-imidazo[4,5-b]pyridin-7-yl]phenyl]methyl)-1,2,4-oxadiazole-3-carboxamide] | < 100 nM | 100 to 1000 nM | –
COc1ccc(-c2nc3c(-c4ccc(CNC(=O)c5nc(C(C)(C)C)no5)c(F)c4)ccnc3[nH]2)nc1 [Example 161, 3-tert-butyl-N-([2-fluoro-4-[2-(5-methoxypyridin-2-yl)-3H-imidazo[4,5-b]pyridin-7-yl]phenyl]methyl)-1,2,4-oxadiazole-5-carboxamide] | < 100 nM | < 100 nM | –
CCn1cc(-c2nc3c(-c4ccc(CNC(=O)c5nnc(C(C)(C)C)o5)c(F)c4)ccnc3[nH]2)cn1 [Example 135, 5-(tert-butyl)-N-(4-(2-(1-ethyl-1H-pyrazol-4-yl)-3H-imidazo[4,5-b]pyridin-7-yl)-2-fluorobenzyl)-1,3,4-oxadiazole-2-carboxamide] | < 100 nM | < 100 nM | –
Cn1cc(-c2nc3c(-c4ccc(CNC(=O)c5nc(C6(C)CC6)no5)c(F)c4)ccnc3[nH]2)cn1 [Example 165, N-([2-fluoro-4-[2-(1-methyl-1H-pyrazol-4-yl)-3H-imidazo[4,5-b]pyridin-7-yl]phenyl]methyl)-3-(1-methylcyclopropyl)-1,2,4-oxadiazole-5-carboxamide] | – | 100 to 1000 nM | –
COc1cccnc1-c1nc2c(-c3ccc(CNC(=O)c4nc(C(C)(C)C)no4)c(F)c3)ccnc2[nH]1 [Example 152, 3-(tert-butyl)-N-(2-fluoro-4-(2-(3-methoxypyridin-2-yl)-3H-imidazo[4,5-b]pyridin-7-yl)benzyl)-1,2,4-oxadiazole-5-carboxamide] | < 100 nM | – | < 100 nM
Cn1cc(-c2nc3c(-c4ccc5c(c4)CN(C(=O)c4nc(C(C)(C)C)no4)CC5)ccnc3[nH]2)cn1 [Example 155, (3-tert-Butyl-[1,2,4]oxadiazol-5-yl)-{7-[2-(1-methyl-1H-pyrazol-4-yl)-3H-imidazo[4,5-b]pyridin-7-yl]-3,4-dihydro-1H-isoquinolin-2-yl}-methanone] | > 5000 nM | – | > 5000 nM
Cn1cc(-c2nc3c(-c4ccc5c(c4)CN(C(=O)c4nc(C(C)(C)C)no4)C5)ccnc3[nH]2)cn1 [Example 156, (3-tert-Butyl-[1,2,4]oxadiazol-5-yl)-{5-[2-(1-methyl-1H-pyrazol-4-yl)-3H-imidazo[4,5-b]pyridin-7-yl]-1,3-dihydro-isoindol-2-yl}-methanone] | 100 to 1000 nM | – | 1000 to 5000 nM
CC(C)(C)c1noc(C(=O)NCc2ccc(-c3ccnc4[nH]c(C5CC5)nc34)cc2F)n1 [Example 28, 3-tert-Butyl-[1,2,4]oxadiazole-5-carboxylic acid 4-(2-cyclopropyl-3H-imidazo[4,5-b]pyridin-7-yl)-2-fluoro-benzylamide] | – | 1000 to 5000 nM | –
COc1cccc(-c2nc3c(-c4cc(F)c(CNC(=O)c5noc(C(C)(C)C)n5)cc4C)ccnc3[nH]2)c1 [Example 78, 5-tert-Butyl-N-([2-fluoro-4-[2-(3-methoxyphenyl)-3H-imidazo[4,5-b]pyridin-7-yl]-5-methylphenyl]methyl)-1,2,4-oxadiazole-3-carboxamide] | < 100 nM | – | < 100 nM
Cn1cc(-c2nc3c(-c4ccc(C(C)(C)NC(=O)C(N)=O)c(F)c4)ccnc3[nH]2)cn1 [Example 102, N-(1-{2-Fluoro-4-[2-(1-methyl-1H-pyrazol-4-yl)-3H-imidazo[4,5-b]pyridin-7-yl]-phenyl}-1-methyl-ethyl)-oxalamide] | 1000 to 5000 nM | – | 1000 to 5000 nM
CC(C)(C)c1nnc(C(=O)NCc2ccc(-c3ccnc4[nH]c(-c5cnn(C6COC6)c5)nc34)cc2F)s1 [Example 125, 5-tert-Butyl-[1,3,4]thiadiazole-2-carboxylic acid 2-fluoro-4-[2-(1-oxetan-3-yl-1H-pyrazol-4-yl)-3H-imidazo[4,5-b]pyridin-7-yl]-benzylamide] | < 100 nM | – | < 100 nM
CC(C)(C)c1nc(C(=O)NCc2ccc(-c3ccnc4[nH]c(-c5cnn(CCN6CCOCC6)c5)nc34)cc2F)no1 [Example 119, 5-tert-Butyl-[1,2,4]oxadiazole-3-carboxylic acid 2-fluoro-4-{2-[1-(2-morpholin-4-yl-ethyl)-1H-pyrazol-4-yl]-3H-imidazo[4,5-b]pyridin-7-yl}-benzylamide] | < 100 nM | – | < 100 nM
Cn1cc(-c2nc3c(-c4ccc(CO)c(F)c4)ccnc3[nH]2)cn1 [Example 32, {2-Fluoro-4-[2-(1-methyl-1H-pyrazol-4-yl)-3H-imidazo[4,5-b]pyridin-7-yl]-phenyl}-methanol] | 1000 to 5000 nM | – | 100 to 1000 nM
Cc1cc(-c2ccnc3[nH]c(-c4cnn(C)c4)nc23)ccc1CNC(=O)C(N)=O [Example 101, N-{2-Methyl-4-[2-(1-methyl-1H-pyrazol-4-yl)-3H-imidazo[4,5-b]pyridin-7-yl]-benzyl}-oxalamide] | 1000 to 5000 nM | – | 1000 to 5000 nM
CC(C)(C)c1ccc(C(=O)NCc2ccc(-c3ccnc4[nH]c(C5CC5)nc34)cc2F)cc1 [Example 26, 4-tert-Butyl-N-[4-(2-cyclopropyl-3H-imidazo[4,5-b]pyridin-7-yl)-2-fluoro-benzyl]-benzamide] | < 100 nM | – | < 100 nM
Cn1cc(-c2nc3c(-c4ccc(CNC(=O)C5CCC(C(C)(C)C)CC5)c(F)c4)ccnc3[nH]2)cn1 (stereo not drawn) [Example 15, 4-tert-Butyl-cyclohexanecarboxylic acid 2-fluoro-4-[2-(1-methyl-1H-pyrazol-4-yl)-3H-imidazo[4,5-b]pyridin-7-yl]-benzylamide] | – | 1000 to 5000 nM | –
